Source: ChEMBL document CHEMBL4613223, “Structure-based design of guanosine analogue inhibitors targeting GTP cyclohydrolase IB towards a new class of antibiotics” (Bioorg Med Chem Lett, 2020)

How the values were obtained:
[1] = Inhibition of recombinant full-length Neisseria gonorrhoeae N-terminal His6-tagged GCYH1B expressed in Escherichia coli BL21 (DE3) using GTP as substrate incubated for 50 to 60 mins by fluorescence based assay
[2] = Inhibition of Thermus thermophilus HB8 GCYH1A expressed in Escherichia coli BL21 (DE3) using GTP as substrate incubated for 60 to 180 mins by spectrofluorimetric analysis
[3] = Inhibition of Neisseria gonorrhoeae GCYH1B
[4] = Inhibition of full-length human GCYH1A expressed in Escherichia coli using GTP as substrate incubated for 30 mins by fluorescence based assay

Structure (SMILES)	Ki [1] [µM]	Ki [2] [µM]	IC50 [3] [µM]	IC50 [4] [µM]
Nc1nc2c([nH]c(=O)n2[C@@H]2O[C@H](CO[P@@](=O)(O)O[P@@](=O)(O)OP(=O)(O)O)[C@@H](O)[C@H]2O)c(=O)[nH]1	0.15	0.0054		
Nc1nc(OC[C@@H](O)CO)c2[nH]c(=O)n([C@@H]3O[C@H](CO)[C@@H](O)[C@H]3O)c2n1			164	372
Nc1nc(OC[C@H](O)CO)c2[nH]c(=O)n([C@@H]3O[C@H](CO)[C@@H](O)[C@H]3O)c2n1			134	409
COc1nc2c(=O)[nH]c(N)nc2n1[C@@H]1O[C@H](CO)[C@@H](O)[C@H]1O			372	
Nc1nc(OCCO)c2[nH]c(=O)n([C@@H]3O[C@H](CO)[C@@H](O)[C@H]3O)c2n1			413	221
